Reference: EP2343287A1, “New 2-aminothiadiazole derivatives” (Almirall, S.A., priority 2009, dated 2011)

Target: S1P1 (Homo sapiens, UniProt P21453)
Experiment: 35S-GTPyS binding assay
Assay type: biochemical
Conditions: membranes; compounds at 0.1nM-10µM; 0.1nM 35S-GTPyS; 10µM S1P used as 100% maximum efficacy; 90 min at room temperature
Method: The effect of the compounds was measured using a 35S-GTPyS binding assay. Briefly, membranes were incubated in a buffer containing 20 mM HEPES pH 7.4, 100 mM NaCl, 10 mM MgCl2, 10µM GDP, 50µg/ml saponin and 0.2% fatty acid-free BSA at various concentrations (0.1nM-10µM) and 0.1nM 35S-GTPyS. 10µM S1P was used as 100% maximum efficacy. The assay was incubated for 90 min at room temperature with gentle mixing, and terminated by filtrating the reaction mixture through GF/C filter plates using the Manifold Filtration System. The filters were immediately washed with sodium phosphate pH 7.4 buffers. After drying the filter plate's scintillant liquid were added to each well and 35S-GTPyS binding was measured on a Trilux Scintillation Counter.

Sequence of S1P1 (P21453 whole entry, species assumed): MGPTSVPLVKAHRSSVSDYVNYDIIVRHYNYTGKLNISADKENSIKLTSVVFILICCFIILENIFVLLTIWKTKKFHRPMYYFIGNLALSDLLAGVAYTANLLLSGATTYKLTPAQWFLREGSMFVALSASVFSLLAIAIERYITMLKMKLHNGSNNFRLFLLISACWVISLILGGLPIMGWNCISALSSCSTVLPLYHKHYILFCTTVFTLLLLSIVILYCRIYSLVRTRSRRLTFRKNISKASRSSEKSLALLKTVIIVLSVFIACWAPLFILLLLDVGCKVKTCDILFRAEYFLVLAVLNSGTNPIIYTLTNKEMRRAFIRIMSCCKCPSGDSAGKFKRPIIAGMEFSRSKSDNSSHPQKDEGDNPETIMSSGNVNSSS

| Structure (SMILES) | EC50 [µM] |
| --- | --- |
| CCCCN(Cc1ccccc1Cl)c1nnc(-c2cc(C)c(OC)c(C)c2)s1 [Example 1, N-Butyl-N-(2-chlorobenzyl)-5-(4-methoxy-3,5-dimethylphenyl)-1,3,4-thiadiazol-2-amine] | 0.039 |
| CCCCN(Cc1c(Cl)cccc1Cl)c1nnc(-c2ccnc(C)c2)s1 [Example 16, N-Butyl-N-(2,6-dichlorobenzyl)-5-(2-methylpyridin-4-yl)-1,3,4-thiadiazol-2-amine] | 0.018 |
| CCCCN(Cc1ccccc1Cl)c1nnc(-c2cc(C)c(OC[C@H](O)CO)c(C)c2)s1 [Example 29, (2R)-3-(4-{5-[Butyl(2-chlorobenzyl)amino]-1,3,4-thiadiazol-2-yl}-2,6-dimethyl-phenoxy)propane-1,2-diol] | 0.015 |
| CCCCN(Cc1ccccc1Cl)c1nnc(-c2cc(C)c(OCC(O)CN)c(C)c2)s1 (stereo not shown) [Example 34, 1-Amino-3-(4-{5-[butyl(2-chlorobenzyl)amino]-1,3,4-thiadiazol-2-yl}-2,6-dimethyl-phenoxy)propan-2-ol] | 0.032 |
| CCCCN(Cc1ccccc1F)c1nnc(-c2cc(C)c(OCCN3CC(C(=O)O)C3)c(C)c2)s1 [Example 35, 1-[2-(4-{5-[Butyl(2-fluorobenzyl)amino]-1,3,4-thiadiazol-2-yl}-2,6-dimethyl-phenoxy)ethyl]azetidine-3-carboxylic acid] | 0.033 |
| CCCCN(Cc1ccccc1F)c1nnc(-c2cc(C)c(OCCNCCC(=O)O)c(C)c2)s1 [Example 36, N-[2-(4-{5-[Butyl(2-fluorobenzyl)amino]-1,3,4-thiadiazol-2-yl}-2,6-dimethyl-phenoxy)ethyl]-beta-alanine] | 0.005 |
| CCCCN(c1nnc(-c2ccc(CN3CC(C(=O)O)C3)cc2)s1)S(=O)(=O)Cc1ccccc1 [Example 43, 1-(4-{5-[(Benzylsulfonyl)(butyl)amino]-1,3,4-thiadiazol-2-yl}benzyl)azetidine-3-carboxylic acid] | 0.123 |
